Assay results from patent publication US20250326771A1, “PIPERAZINE DERIVATIVES USEFUL IN HIV THERAPY” (VIIV HEALTHCARE COMPANY, priority 2022, published 2025).
pIC50: −log10 of the molar value. Read-outs that look alike come from different tables or passages of the source.

What was measured:
[1] = tested on: Jurkat HIV-luciferase clones; test: Jurkat latency reversal assay; type: cell-based; settings: Homo sapiens, 48 h; Jurkat latency reversal assay potency; read-out: Jurkat pEC50 (converted)
Summary of the method: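 Compounds are titrated 3-fold over 14 points from 10 μM in duplicate at 0.5% DMSO. Clones C16, 115 and N6, grown with 500 nM EFV, are co-incubated for 48 h at 37° C. Virally driven luciferase is read by luminescence, and EC50 and maximal percent activation versus vehicle come from a four-parameter model.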

cIAP1-BIR3 = cIAP1-BIR3 (Homo sapiens (Human), UniProt Q13490); test: BIR binding assay (FRET competition), cIAP1 BIR3; settings: for cIAP1 BIR3 vs BIR2 separation window: fold separation (FS) for cIAP1
Summary of the method: (§1)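 His-tagged domains (50 nM cIAP1-BIR3, 325 nM cIAP2-BIR2, 325 nM cIAP1-BIR2, 100 nM XIAP-BIR3) compete with compounds for a 200 nM AlexaFluor647-labelled SMAC/DIABLO peptide in HEPES buffer, pH 7.4, for 60 min. Then 2 nM Eu-W1024 is added for 30 min. The 615/665 nm ratio is fit by four-parameter fit to give IC50.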

cIAP1-BIR2 = cIAP1-BIR2 (Homo sapiens (Human), UniProt Q13490); test: BIR binding assay (FRET competition), cIAP1 BIR2
Summary of the method: as §1

cIAP2-BIR3 = cIAP2-BIR3 (Homo sapiens (Human), UniProt Q13489); test: BIR binding assay (FRET competition), cIAP2 BIR3; settings: for cIAP2 BIR3 vs BIR2 separation window: fold separation (FS) for cIAP2
cIAP2-BIR2 = cIAP2-BIR2 (Homo sapiens (Human), UniProt Q13489); test: BIR binding assay (FRET competition), cIAP2 BIR2
Summary of the method: as §1

XIAP-BIR3 = XIAP-BIR3 (Homo sapiens (Human), UniProt P98170); test: BIR binding assay (FRET competition), XIAP BIR3; settings: for XIAP BIR3 vs BIR2 separation window: fold separation (FS) for XIAP
Summary of the method: as §1

XIAP-BIR2 = XIAP-BIR2 (Homo sapiens (Human), UniProt P98170); test: BIR binding assay (FRET competition), XIAP BIR2; settings: for IC50: read-out: XIAP BIR2 (pIC50) (converted)
Summary of the method: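 Compounds in a 15-point, 3-fold series competed with an AlexaFluor647 SMAC peptide (AVPIAQKSE, 200 nM) for 200 nM His-tagged XIAP-BIR2 over 60 min in pH 7.4 HEPES/CHAPS/DTT buffer. Eu-W1024 (2 nM) was then added for 30 min. IC50 and pIC50 were derived from the 615 nm/665 nm emission ratio by variable-slope fit.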

Sequence of XIAP-BIR2 (P98170 124-240): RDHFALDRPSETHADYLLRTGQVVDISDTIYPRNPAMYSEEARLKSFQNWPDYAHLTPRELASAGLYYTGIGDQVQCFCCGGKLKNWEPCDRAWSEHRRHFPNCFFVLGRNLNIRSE
Sequence of cIAP2-BIR3 (Q13489 238-349): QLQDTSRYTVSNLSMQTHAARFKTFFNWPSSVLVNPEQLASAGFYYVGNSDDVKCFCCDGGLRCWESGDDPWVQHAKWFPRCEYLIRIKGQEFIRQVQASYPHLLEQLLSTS
Sequence of cIAP2-BIR2 (Q13489 158-242): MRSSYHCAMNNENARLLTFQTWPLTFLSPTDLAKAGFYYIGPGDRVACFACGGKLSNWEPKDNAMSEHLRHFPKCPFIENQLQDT
Sequence of cIAP1-BIR2 (Q13490 173-257): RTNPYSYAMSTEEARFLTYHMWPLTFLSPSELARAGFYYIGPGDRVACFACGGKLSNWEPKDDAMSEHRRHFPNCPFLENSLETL
Sequence of XIAP-BIR3 (P98170 241-356): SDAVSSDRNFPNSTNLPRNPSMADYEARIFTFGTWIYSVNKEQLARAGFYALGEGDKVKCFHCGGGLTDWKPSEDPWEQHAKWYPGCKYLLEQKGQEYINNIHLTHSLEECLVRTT
Sequence of cIAP1-BIR3 (Q13490 253-363): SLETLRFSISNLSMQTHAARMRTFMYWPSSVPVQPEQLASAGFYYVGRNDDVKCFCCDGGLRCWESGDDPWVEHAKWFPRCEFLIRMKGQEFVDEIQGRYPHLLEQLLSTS

SMILES	EC50 [1]	pIC50 (cIAP1-BIR3)	cIAP1 BIR3 vs BIR2 separation window (cIAP1-BIR3)	pIC50 (cIAP1-BIR2)	pIC50 (cIAP2-BIR3)	cIAP2 BIR3 vs BIR2 separation window (cIAP2-BIR3)	pIC50 (cIAP2-BIR2)	pIC50 (XIAP-BIR3)	XIAP BIR3 vs BIR2 separation window (XIAP-BIR3)	IC50 (XIAP-BIR2; FRET competition binding)	cIAP1 BIR3 (pIC50) (cIAP1-BIR3; FRET competition binding)	XIAP BIR2 (pIC50) (XIAP-BIR2; FRET competition binding)	IC50 (XIAP-BIR2; FRET competition)	pIC50 (XIAP-BIR2)
C[C@@H]1CN(CC(=O)N2CC(C)(C)c3[nH]c(=O)c(Cc4ccc(F)cc4)cc32)[C@@H](CN2CCO[C@@H](COc3cccc(OC[C@H]4CN(C[C@H]5CN[C@H](C)CN5CC(=O)N5CC(C)(C)c6[nH]c(=O)c(Cc7ccc(F)cc7)cc65)CCO4)c3)C2)CN1 [Example 112, 1,1′-(2,2′-((3R,3′R,6R,6′R)-(((2R,2′R)-((1,3-phenylenebis(oxy))bis(methylene))bis(morpholine-2,4-diyl))bis(methylene))bis(3-methylpiperazine-6,1-diyl))bis(acetyl))bis(6-(4-fluorobenzyl)-3,3-dimethyl-1,2,3,4-tetrahydro-5H-pyrrolo[3,2-b]pyridin-5-one)]	0.0126 to 0.0631 µM	7.80 to 8.10	+++ (10,000>FS>1,000)	5.00 to 5.50	7.80 to 8.10	+++ (10,000>FS>1,000)	5.50 to 6.00	7.50 to 7.80	+++ (10,000>FS>1,000)	10 to 51.3 µM				
C[C@@H]1CN(CC(=O)N2CC(C)(C)c3[nH]c(=O)c(Cc4ccc(F)cc4)cc32)[C@@H](CN2CCN(C(=O)Cc3ccccc3CC(=O)N3CCN(C[C@H]4CN[C@H](C)CN4CC(=O)N4CC(C)(C)c5[nH]c(=O)c(Cc6ccc(F)cc6)cc54)[C@H](C)C3)C[C@H]2C)CN1 [Example 7, 1,1′-(2,2′-((3R,3′R,6R,6′R)-(((2R,2′R)-(2,2′-(1,2-phenylene)bis(acetyl))bis(2-methylpiperazine-4,1-diyl))bis(methylene))bis(3-methylpiperazine-6,1-diyl))bis(acetyl))bis(6-(4-fluorobenzyl)-3,3-dimethyl-1,2,3,4-tetrahydro-5H-pyrrolo[3,2-b]pyridin-5-one)]	0.0631 to 0.316 µM	7.50 to 7.80		6.00 to 7.65	7.50 to 7.80		6.00 to 7.65	7.50 to 7.80		1 to 3.16 µM				
C[C@@H]1CN(CC(=O)N2CC(C)(C)c3[nH]c(=O)c(Cc4ccc(F)cc4)cc32)[C@@H](CN2CCC[C@@H](NC(=O)CCCCCCC(=O)N[C@@H]3CCCN(C[C@H]4CN[C@H](C)CN4CC(=O)N4CC(C)(C)c5[nH]c(=O)c(Cc6ccc(F)cc6)cc54)C3)C2)CN1 [Example 44, N^1,N^8-bis((R)-1-(((2R,5R)-1-(2-(6-(4-fluorobenzyl)-3,3-dimethyl-5-oxo-2,3,4,5-tetrahydro-1H-pyrrolo[3,2-b]pyridin-1-yl)-2-oxoethyl)-5-methylpiperazin-2-yl)methyl)piperidin-3-yl)octanediamide]	0.316 to 3.31 µM		+++ (10,000>FS>1,000)	4.29 to 5.00	7.50 to 7.80	++++ (FS>10,000)	4.29 to 5.00	7.50 to 7.80	++++ (FS>10,000)		+ (7.50>pIC50>=6.30)	+ (4.29<pIC50<=5.00)		
C[C@@H]1CN(CC(=O)N2CC(C)(C)c3[nH]c(=O)c(Cc4ccc(F)cc4)cc32)[C@@H](CN2CCO[C@H](C(=O)NCC(=O)N3CCN(C[C@H]4CN[C@H](C)CN4CC(=O)N4CC(C)(C)c5[nH]c(=O)c(Cc6ccc(F)cc6)cc54)[C@H](C)C3)C2)CN1 [Compound 159, (S)-4-(((2R,5R)-1-(2-(6-(4-fluorobenzyl)-3,3-dimethyl-5-oxo-2,3,4,5-tetrahydro-1H-pyrrolo[3,2-b]pyridin-1-yl)-2-oxoethyl)-5-methylpiperazin-2-yl)methyl)-N-(2-((R)-4-(((2R,5R)-1-(2-(6-(4-fluorobenzyl)-3,3-dimethyl-5-oxo-2,3,4,5-tetrahydro-1H-pyrrolo[3,2-b]pyridin-1-yl)-2-oxoethyl)-5-methylpiperazin-2-yl)methyl)-3-methylpiperazin-1-yl)-2-oxoethyl)morpholine-2-carboxamide]	0.0631 to 0.316 µM	7.80 to 8.10	++ (1,000>FS>100)	6.00 to 7.65	8.10 to 8.86	+++ (10,000>FS>1,000)	6.00 to 7.65	7.80 to 8.10	++++ (FS>10,000)				10 to 51.3 µM	
C[C@@H]1CN(CC(=O)N2CC(C)(C)c3[nH]c(=O)c(Cc4ccc(F)cc4)cc32)[C@@H](CN2CCN(Cc3c(F)c(F)c(CN4CCN(C[C@H]5CN[C@H](C)CN5CC(=O)N5CC(C)(C)c6[nH]c(=O)c(Cc7ccc(F)cc7)cc65)[C@H](C)C4)c(F)c3F)C[C@H]2C)CN1 [Example 28, 1,1′-(2,2′-((3R,3′R,6R,6′R)-(((2R,2′R)-((perfluoro-1,4-phenylene)bis(methylene))bis(2-methylpiperazine-4,1-diyl))bis(methylene))bis(3-methylpiperazine-6,1-diyl))bis(acetyl))bis(6-(4-fluorobenzyl)-3,3-dimethyl-1,2,3,4-tetrahydro-5H-pyrrolo [3,2-b]pyridin-5-one)]	0.316 to 3.31 µM	7.50 to 7.80	+++ (10,000>FS>1,000)	5.50 to 6.00	7.50 to 7.80	+++ (10,000>FS>1,000)	5.00 to 5.50	6.30 to 7.50	+++ (10,000>FS>1,000)	10 to 51.3 µM				
C[C@@H]1CN(CC(=O)N2CC(C)(C)c3[nH]c(=O)c(Cc4ccc(F)cc4)cc32)[C@@H](CN2CCO[C@H](C(=O)NCC#CC#CCNC(=O)[C@@H]3CN(C[C@H]4CN[C@H](C)CN4CC(=O)N4CC(C)(C)c5[nH]c(=O)c(Cc6ccc(F)cc6)cc54)CCO3)C2)CN1 [Example 93, (2S,2'S)-N,N′-(hexa-2,4-diyne-1,6-diyl)bis(4-(((2R,5R)-1-(2-(6-(4-fluorobenzyl)-3,3-dimethyl-5-oxo-2,3,4,5-tetrahydro-1H-pyrrolo[3,2-b]pyridin-1-yl)-2-oxoethyl)-5-methylpiperazin-2-yl)methyl)morpholine-2-carboxamide)]	0.0126 to 0.0631 µM	7.80 to 8.10	++ (1,000>FS>100)	6.00 to 7.65	7.80 to 8.10	+++ (10,000>FS>1,000)	5.50 to 6.00	6.30 to 7.50	++++ (FS>10,000)	10 to 51.3 µM				
C[C@@H]1CN(CC(=O)N2CC(C)(C)c3[nH]c(=O)c(Cc4ccc(F)cc4)cc32)[C@@H](CN2CCO[C@H](COc3cccc(OC[C@@H]4CN(C[C@H]5CN[C@H](C)CN5CC(=O)N5CC(C)(C)c6[nH]c(=O)c(Cc7ccc(F)cc7)cc65)CCO4)c3Br)C2)CN1 [Example 87, 1,1′-(2,2′-((3R,3′R,6R,6′R)-(((2S,2'S)-(((2-bromo-1,3-phenylene)bis(oxy))bis(methylene))bis(morpholine-2,4-diyl))bis(methylene))bis(3-methylpiperazine-6,1-diyl))bis(acetyl))bis(6-(4-fluorobenzyl)-3,3-dimethyl-1,2,3,4-tetrahydro-5H-pyrrolo[3,2-b]pyridin-5-one)]	0.00049 to 0.0126 µM	7.80 to 8.10	+++ (10,000>FS>1,000)	5.50 to 6.00	7.80 to 8.10	+++ (10,000>FS>1,000)	5.00 to 5.50	7.80 to 8.10	++++ (FS>10,000)	10 to 51.3 µM				
C[C@@H]1CN(CC(=O)N2CC(C)(C)c3ncc(Cc4cccnc4)cc32)[C@@H](CN2CCO[C@H](COc3cccc(OC[C@@H]4CN(C[C@H]5CN[C@H](C)CN5CC(=O)N5CC(C)(C)c6ncc(Cc7cccnc7)cc65)CCO4)c3)C2)CN1 [Compound 146]	0.316 to 3.31 µM	8.10 to 8.86	++++ (FS>10,000)	4.29 to 5.00	8.10 to 8.86	++++ (FS>10,000)	4.29 to 5.00	6.30 to 7.50	++++ (FS>10,000)					4.29 to 5.00
C[C@@H]1CN(CC(=O)N2CC(C)(C)c3[nH]c(=O)c(Cc4ccc(F)cc4)cc32)[C@@H](CN2CCO[C@H](C(=O)NCCOCCNC(=O)[C@@H]3CN(C[C@H]4CN[C@H](C)CN4CC(=O)N4CC(C)(C)c5[nH]c(=O)c(Cc6ccc(F)cc6)cc54)CCO3)C2)CN1 [Compound 138, (2S,2′S)-N,N′-(oxybis(ethane-2,1-diyl))bis(4-(((2R,5R)-1-(2-(6-(4-fluorobenzyl)-3,3-dimethyl-5-oxo-2,3,4,5-tetrahydro-1H-pyrrolo[3,2-b]pyridin-1-yl)-2-oxoethyl)-5-methylpiperazin-2-yl)methyl)morpholine-2-carboxamide)]	0.0631 to 0.316 µM	8.10 to 8.86	+++ (10,000>FS>1,000)	5.50 to 6.00	8.10 to 8.86	+++ (10,000>FS>1,000)	5.50 to 6.00	7.80 to 8.10	++++ (FS>10,000)				10 to 51.3 µM	
